Data on 20 compounds can be found in patent EP4647428A1, “COMPOUND CONTAINING 2-METHYL-2-(3-(PIPERIDIN-3-YL)PHENOXY)-2-METHYLPROPANAMIDE SKELETON” (Jiangsu Mingsheng Jutai Biotechnology Co. Ltd, priority 2023, dated 2024).

This assay has as its system SW480. Put plainly: CCK8 cell inhibition test on SW480 cells. Particulars: CCK-8, SW480 cells, 24 hours incubation at 37°C, compound 20 µM to 0.15625 µM in DMEM (2% FBS). Format: cell-based. As for the experimental part:
Cells were digested, counted, and plated in a 96-well plate (flat-bottomed, transparent) with 10,000 cells/100 µl DMEM (10% FBS) per well . • 2. Observe the cell status on the next day and start adding drugs after the cells have fully adhered to the wall; • 3. Dilute the compound in DMEM (2% FBS) in a serial dilution format to concentrations of 20 µM, 10 µM, 5 µM, 2.5 µM, 1.25 µM, 0.625 µM, 0.3125 µM, 0.15625 µM, and 0 µM (with equal volume of DMSO). • 4. Add 100 µl of the above compounds at different concentrations to each well. Repeat for each concentration gradient in duplicate. Leave three blank wells (add only DMEM 2% FBS culture medium without cells) . • 5. Incubate at 37°C for 24 hours . • 6. Add 10 µl of CCK-8 Enhanced Solution to each well. Since the amount of CCK-8 added to each well is relatively small, there may be errors due to the reagent sticking to the well wall. It is recommended to gently tap the culture plate after adding the reagent to help mix it. • 7. Incubate in the incubator for 0.5-4 hours: The amount of formazan formed varies depending on the cell type. In most cases, incubation for 1 hour is sufficient. If color development is insufficient, continue incubation to confirm optimal conditions. • 8. Measure the absorbance at 450nm and 600nm (excluding interference from the reagent background color and the absorbance of the well plate itself); • 9. The final absorbance value is OD450nm-OD600nm, and the inhibition rate is calculated; Inhibition rate = [(Ac−As)/(Ac−Ab)] × 100% [formula] • As: absorbance of the experimental well (culture medium containing cells, CCK-8, and drug to be tested); • Ac: absorbance of control wells (culture medium containing cells, CCK-8, and no test drug); • Ab: absorbance of blank wells (culture medium without cells, test drugs, or CCK-8).

What is called IC50 is the concentration that inhibits the measured activity by half.

Compound `CC(C)n1cc(-c2cccc(S(=O)(=O)N3CCCC(c4cccc(OC(C)(C)C(=O)NCC(=O)N5CCCC5CN)c4)C3)c2)cn1` (centres unmarked) [Compound 115-022, N-(2-(2-(Aminomethyl)pyrrolidin-1-yl)-2-oxoethyl)-2-(3-(1-((3-(1-isopropyl-1H-pyrazol-4-yl)phenyl)sulfonyl)piperidin-3-yl)phenoxy)-2-methylpropanamide] yielded an IC50 (Homo sapiens) of 9.71 µM.
Regarding `CC(C)(Oc1cccc(C2CCCN(S(=O)(=O)c3ccc(-c4cn[nH]c4)cc3)C2)c1)C(=O)NS(=O)(=O)c1ccc(C(F)(F)F)cc1` (centres unmarked) [Compound 115-026, 2-(3-(1-((4-(1H-pyrazol-4-yl)phenyl)sulfonyl)piperidin-3-yl)phenoxy)-2-methyl-N-((4-(trifluoromethyl)phenyl)sulfonyl)propionamide], the “SW480 IC50(µM)” value is “Inactive”.
In the case of `CC(C)c1ccc(-c2cccc(S(=O)(=O)N3CCC=C(c4cccc(OC(C)(C)C(=O)NCC(=O)N5CCCC5CN)c4)C3)c2)cc1` (centres unmarked) [Compound 115-049, N-(2-(2-(Aminomethyl)pyrrolidin-1-yl)-2-oxoethyl)-2-(3-(1-((4'-isopropyl-[1,1'-biphenyl]-3-yl)sulfonyl)-1,2,5,6-tetrahydropyridin-3-yl)phenoxy)-2-methylpropanamide], the IC50 (Homo sapiens) is ≤ 2.65 µM.
Still for that read-out and setting: as for `CC(C)c1ccc(-c2cccc(S(=O)(=O)N3CCCC(c4cccc(OC(C)(C)C(=O)NCC(=O)N5CC[C@H](CN)C5)c4)C3)c2)cc1` (some centres unmarked) [Compound 115-013], the figure is 3.12 µM.
For the compound `CC(C)(Oc1cccc(C2CCCN(S(=O)(=O)c3cccc(-c4cn[nH]c4)c3)C2)c1)C(=O)NS(=O)(=O)c1ccc(C(F)(F)F)cc1` (centres unmarked) [Compound 115-025, 2-(3-(1-((3-(1H-pyrazol-4-yl)phenyl)sulfonyl)piperidin-3-yl)phenoxy)-2-methyl-N-((4-(trifluoromethyl)phenyl)sulfonyl)propionamide], the “SW480 IC50(µM)” value is “Inactive”.
As for “N-(2-((S)-2-(2-aminoethyl)pyrrolidin-1-yl)-2-oxoethyl)-2-(3-(1-((4'-isopropyl-[1,1'-biphenyl]-3-yl)sulf onylpiperidin-3-yl)phenoxy)-2-methylpropanamide) [Compound 115-014]”, half-maximal inhibition (IC50) required 52.9 µM.
Take `CC(C)c1ccc(-c2ccc(C(=O)N3CCCC(c4cccc(OC(C)(C)C(=O)NCC(=O)N5CCCC5CN)c4)C3)cc2)cc1` (centres unmarked) [Compound 115-030]: the IC50 (Homo sapiens) lay within 3.12 to 6.25 µM.
Under “Homo sapiens”, `CC(C)c1ccc(-c2cccc(S(=O)(=O)N3CCCC(c4cccc(OC(C)(C)C(=O)NCC(=O)N5CCC[C@@H]5CN)c4)C3)c2)cc1` (some centres unmarked) [Compound 115-011] returned an IC50 of 3.12 to 6.25 µM.
`CC(C)c1ccc(-c2cccc(S(=O)(=O)N3CCCC(c4cccc(OC(C)(C)C(=O)NS(=O)(=O)c5ccc(C(F)(F)F)cc5)c4)C3)c2)cc1` (centres unmarked) [Compound 115, reference compound]: the IC50 (Homo sapiens) turned out to be 2.81 µM.
Still for that read-out and setting: as for `CC(C)n1cc(-c2cccc(S(=O)(=O)N3CCCC(c4cccc(OC(C)(C)C(=O)NS(=O)(=O)c5ccc(C(F)(F)F)cc5)c4)C3)c2)cn1` (centres unmarked) [Compound 115-024, 2-(3-(1-((3-(1-isopropyl-1H-pyrazol-4-yl)phenyl)sulfonyl)piperidin-3-yl)phenoxy)-2-methyl-N-((4-(trifluoromethyl)phenyl)sulfonyl)propionamide], the figure is 11.1 µM; as for `CC(C)(Oc1cccc(C2CCCN(S(=O)(=O)c3cccc(-c4cn[nH]c4)c3)C2)c1)C(=O)NCC(=O)N1CCCC1CN` (centres unmarked) [Compound 115-023, 2-(3-(1-((3-(1H-pyrazol-4-yl)phenyl)sulfonyl)piperidin-3-yl)phenoxy)-N-(2-(2-(aminomethyl)pyrrolidin-1-yl)-2-oxoethyl)-2-methylpropanamide], 30.5 µM; as for `CC(C)(Oc1cccc(C2CCCN(C(=O)CCc3ccc(-c4cn[nH]c4)cc3)C2)c1)C(=O)NCC(=O)N1CCCC1CN` (centres unmarked) [Compound 115-029, 2-(3-(1-(3-(4-(1H-pyrazol-4-yl)phenyl)propionyl)piperidin-3-yl)phenoxy)-N-(2-(2-(aminomethyl)pyrrolidin-1-yl)-2-oxoethyl)-2-methylpropionamide], 20.8 µM.
On the same count and under the same terms, as for `CC(C)c1ccc(-c2cccc(S(=O)(=O)N3CCCC(c4cccc(OC(C)(C)C(=O)NCC(=O)N5CCCC5CN)c4)C3)n2)cc1` (centres unmarked) [Compound 115-052, N-(2-(2-(aminomethyl)pyrrolidin-1-yl)-2-oxoethyl)-2-(3-(1-((6-(4-isopropylphenyl)pyridin-2-yl)sulfonyl)piperidin-3-yl)phenoxy)-2-methylpropanamide], the figure is ≤ 2.74 µM.
Turning to `CC(C)(Oc1cccc(C2CCCN(C(=O)NCc3ccc(-c4cn[nH]c4)cc3)C2)c1)C(=O)NCC(=O)N1CCCC1CN` (centres unmarked) [Compound 115-020, N-(4-(1H-pyrazol-4-yl)benzyl)-3-(3-((1-((2-(2-(aminomethyl)pyrrolidin-1-yl)-2-oxoethyl)amino)-2-methyl-1-oxopropanoyl)oxy)phenyl)piperidine-1-carboxamide], the “SW480 IC50(µM)” value was “Inactive”.
On to `CC(C)c1ccc(-c2cncc(S(=O)(=O)N3CCCC(c4cccc(OC(C)(C)C(=O)NCC(=O)N5CCCC5CN)c4)C3)c2)cc1` (centres unmarked) [Compound 115-055, N-(2-(2-(Aminomethyl)pyrrolidin-1-yl)-2-oxoethyl)-2-(3-(1-((5-(4-isopropylphenyl)pyridin-3-yl)sulfonyl)piperidin-3-yl)phenoxy)-2-methylpropanamide], for which the IC50 (Homo sapiens) turned out to be 4.06 µM.
For `CC(C)c1ccc(-c2ccc(CC(=O)N3CCCC(c4cccc(OC(C)(C)C(=O)NCC(=O)N5CCCC5CN)c4)C3)cc2)cc1` (centres unmarked) [Compound 115-031, N-(2-(2-(Aminomethyl)pyrrolidin-1-yl)-2-oxoethyl)-2-(3-(1-(2-(4'-isopropyl-[1,1'-biphenyl]-4-yl)acetyl)piperidin-3-yl)phenoxy)-2-methylpropanamide], the IC50 (Homo sapiens) is 6.99 µM.
For the compound `CC(C)(Oc1cccc(C2CCCN(C(=O)NCCc3ccc(-c4cn[nH]c4)cc3)C2)c1)C(=O)NCC(=O)N1CCCC1CN` (centres unmarked) [Compound 115-021, N-(4-(1H-pyrazol-4-yl)phenethyl)-3-(3-((1-((2-(2-(aminomethyl)pyrrolidin-1-yl)-2-oxoethyl)amino)-2-methyl-1-oxopropanoyl)oxy)phenyl)piperidine-1-carboxamide], the “SW480 IC50(µM)” value is given as “Inactive”.
As to `CC(C)(Oc1cccc(C2CCCN(C(=O)c3ccc(-c4cn[nH]c4)cc3)C2)c1)C(=O)NCC(=O)N1CCCC1CN` (centres unmarked) [Compound 115-027, 2-(3-(1-(4-(1H-pyrazol-4-yl)benzoyl)piperidin-3-yl)phenoxy)-N-(2-(2-(aminomethyl)pyrrolidin-1-yl)-2-oxoethyl)-2-methylpropanamide], the IC50 (Homo sapiens) was 23.1 µM.
Same read-out and setting: as for `CC(C)(Oc1cccc(C2CCCN(C(=O)Cc3ccc(-c4cn[nH]c4)cc3)C2)c1)C(=O)NCC(=O)N1CCCC1CN` (centres unmarked) [Compound 115-028, 2-(3-(1-(2-(4-(1H-pyrazol-4-yl)phenyl)acetyl)piperidin-3-yl)phenoxy)-N-(2-(2-(aminomethyl)pyrrolidin-1-yl)-2-oxoethyl)-2-methylpropanamide], the figure is 15.7 µM; as for `CC(C)c1ccc(-c2cccc(S(=O)(=O)N3CCCC(c4cccc(OC(C)(C)C(=O)NS(=O)(=O)N5CCC[C@@H]5CN)c4)C3)c2)cc1` (stereo partly drawn) [Compound 115-017, N-(2-(R)-(Aminomethyl)pyrrolidin-1-yl)sulfonyl)-2-(3-(1-((4'-isopropyl-[1,1'-biphenyl]-3-yl)sulfonylpiperidin-3-yl)phenoxy)-2-methylpropionamide], 10.6 µM.
